Measured values published in ChEMBL document CHEMBL6134907, “Synthesis of 5,9- and 5,8-Diaminoalkoxy Substituted Benzophenanthridinone Analogues as Tyrosyl-DNA Phosphodiesterase 1 Inhibitors and Their Radiosensitizing Activity” (J Med Chem, 2025).

What was measured:
HCT-116 [1] = assay: Induction of ROS generation in human HCT-116 cells assessed as fold increase in intracellular ROS level at 5 uM under 4GY ionizing radiation (IR) measured after 20 mins by ELIASA analysis; type: functional
[2] = AUC infinity in male Sprague-Dawley rat at 1 mg/kg, iv measured up to 24 hrs by LCMS-MS analysis; type: ADME, organism-based; settings: in vivo
HCT-116 [3] = assay: In vivo radiosensitizing activity in human HCT-116 cells xenografted in BALB/c mouse assessed as sensitization of 1 GY ionizing radiation induced reduction in tumor weight at 1 mg/kg, ip every day for 14 days radiated for every 2 days once (reference value: 35%); type: functional; parameters: scale not given: the % may be the effect or the level left; settings: time 14 day
HCT-116 [4] = assay: Induction of apoptosis in human HCT-116 cells assessed as early apoptotic cells at 5 uM measured after 24 hrs by FITC Annexin V/PI apoptosis detection assay (reference value: 0.26%); type: functional
[5] = Toxicity in BALB/c mouse xenografted with human HCT-116 cells assessed as change in kidney weight at 1 to 10 mg/kg, ip every day for 14 days radiated for every 2 days once; type: organism-based; settings: in vivo, 336 h, dose 1-10 mg/kg, time 14 day
[6] = Toxicity in BALB/c mouse xenografted with human HCT-116 cells assessed as change in heart weight at 1 to 10 mg/kg, ip every day for 14 days; type: organism-based; settings: in vivo, 336 h, dose 1-10 mg/kg, time 14 day
HCT-116 [7] = assay: Synergistic cytotoxicity against human HCT116 cells assessed as combination index at 1 uM incubated for 48 hrs in presence of 2GY ionizing radiation (IR); type: functional

For `COc1cc2c(=O)n(CCN(C)C)c3c4cc5c(cc4ccc3c2cc1OCCN1CCOCC1)OCO5`, the “fold change (FC)” value (HCT-116 [1]) was 1.7, the AUC(0-inf) [2] was 0.291 µg·h/mL and the Activity (HCT-116 [3]) was 60%. The Activity (HCT-116 [4]) was 14.89%, the Activity [5] was “Non-toxic” and the Activity [6] was “Non-toxic”. It also gave an Activity (HCT-116 [7]) of 28%.
